Results taken from patent US8865750B2, “Small molecule inhibitors of RGS proteins” (The Regents of The University of Michigan, priority 2011, dated 2014).
pIC50, pKi: −log10 of the molar value. ≈ marks a conversion by molar mass, not a printed value.

Experiments:
[1] = molecular target: 107C RGS8 (C160S) (Homo sapiens (Human), UniProt P57771, C160S); experiment: FCPIA: RGS8 mutant 107C; format: binding
Experimental: (§1) With the exception of RGS8 mutants, all RGS and G proteins were prepared as previously described (Roman, D., et al., Mol Pharmacol). […] Mutagenesis was performed using the QuickChange Multi-site Directed Mutagenesis kit (Agilent, La Jolla Calif.).
(§2) This protein only contains two cysteines in the RGS homology domain, making it a simpler model system to study than other RGS proteins. Each cysteine from the RGS8 RGS homology (RH) domain was individually mutated to serine and the activity of the compound was analyzed via FCPIA (FIG. 6).

[2] = system: δ-opioid receptor; experiment: cAMP accumulation in SH-SY5Y cells, SNC80; format: cell-based
Experimental: (§3) Accumulated cAMP was measured by radioimmunoassay in a 10-15 μl aliquot of the supernatant from each sample following the manufacturer's instructions (cAMP radioimmunoassay kit from GE Healthcare, Piscataway, N.J.). Data are from four separate experiments, each carried out in duplicates and calculated as percent inhibition.
as §3, with “Cells were plated into 24-well plates to reach ˜90% confluency on the day of assay and washed once with fresh serum-free medium. […] Accumulated” for “Accumulated”

[3] = molecular target: RGS8 (Homo sapiens (Human), UniProt P57771); experiment: FCPIA: Gαo binding to RGS8
Source text: FCPIA Dose Response and Reversibility Experiments:

[4] = system: HEK-293 cells; experiment: WST-1 cell viability; format: cell-based; conditions: up to 100 μM, overnight
Experimental: WST-1 Cell Viability Studies:
HEK-293 cells were plated to a density of 30,000/well in 96-well plates and grown for 48 hours in Dulbecco's Modified Eagle Medium (DMEM) containing 10% fetal bovine serum and Penicillin (100 units/ml)-Streptomycin (100 μg/ml) under 5% CO2 at 37° C. Compound treatment was performed overnight in DMEM containing 0.1% bovine serum albumin under 5% CO2 at 37° C. After compound incubation ten microliters of the WST-1 reagent (Hoffmann-La Roche, Switzerland) was added to every well and the cells were incubated for 1 hour under 5% CO2 at 37° C. Absorbance was measured at 450 nm using a Victor II plate reader (Perkin-Elmer, Picastaway, N.J.).

[5] = molecular target: 160C RGS8 (C107S) (Homo sapiens (Human), UniProt P57771, C107S); experiment: FCPIA: RGS8 mutant 160C; format: binding
Experimental: as §1, §2

[6] = Solubility experiments; format: physicochemical; conditions: water; aqueous
Experimental: Compounds were diluted to 100 mM in DMSO and the further diluted to 500 μM in H2O, vortexed and centrifuged for 10 minutes at 13,000×g at ambient temperature.

RGS8, sequence (P57771 other isoform, or with tags, fused parts or gaps): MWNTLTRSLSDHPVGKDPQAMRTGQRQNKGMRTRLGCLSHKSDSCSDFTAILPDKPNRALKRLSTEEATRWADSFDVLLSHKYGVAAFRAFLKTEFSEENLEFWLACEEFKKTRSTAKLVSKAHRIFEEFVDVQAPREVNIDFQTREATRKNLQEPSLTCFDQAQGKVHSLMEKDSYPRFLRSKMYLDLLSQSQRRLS
107C RGS8 (C160S), sequence (P57771 other isoform, or with tags, fused parts or gaps C160S): as the sequence (P57771 other isoform, or with tags, fused parts or gaps) above, with C160S counted along it
160C RGS8 (C107S), sequence (P57771 other isoform, or with tags, fused parts or gaps C107S): as the sequence (P57771 other isoform, or with tags, fused parts or gaps) above, with C107S counted along it

- inhibition at 20 µM ([1]; 20 μM, all time points, read-out: irreversible inhibition of 107C RGS8): ~20%
- pIC50 ([1]; FIG. 6): 4.33
- pIC50 ([3]; Table 2, mean of two independent FCPIA experiments, read-out: RGS8 IC50): 5.96
- pKi ([3]; read-out: experimentally derived Ki value): 6.52
- inhibition at 20 µM ([5]; 20 μM, all time points, read-out: irreversible inhibition of 160C RGS8): ~50%
- pIC50 ([5]; FIG. 6): 6.15
- solubility [6]: ~100 µM (≈ 31.6 µg/mL)
Structure (SMILES): Cc1ccc(-n2sc(=O)n(Cc3ccc(F)cc3)c2=O)cc1 [CCG-50014, 4-[(4-fluorophenyl)methyl]-2-(4-methylphenyl)-1,2,4-thiadiazolidine-3,5-dione]
- inhibition of forskolin-stimulated adenylate cyclase by SNC-80 with compound ([2]; 100 nM SNC-80 + 100 μM CCG-50014): 44%
- effect on forskolin-stimulation of cAMP production ([2]; 100 μM): no effect
- cell viability (WST-1) [4]: did not reduce cell viability below control levels
